Measurements taken from PubChem BioAssay (NCI).
Several values for one entry are separate records, joined by “and”; a condition that tells them apart may be missing. Identical values can stand only once.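 Test compounds were applied to cells in 96-well plates for 48 hours at 5 doses. GI50: concentration for 50% inhibition of growth. TGI is the concentration that stops growth completely.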

Assays:
Experiment in all cases: NCI tumour cell line growth inhibition, 48 h
[1] = system: SF-268 CNS
[2] = system: SN12C renal
[3] = system: EKVX NSCLC
[4] = system: MOLT-4 leukemia
[5] = system: NCI-H226 lung
[6] = system: SK-MEL-2 melanoma
[7] = system: TK-10 renal
[8] = system: CAKI-1 renal
[9] = system: A498 renal
[10] = system: HCC-2998 colon

SMILES	GI50 [1] [µM]	TGI [1] [µM]	GI50 [2]	TGI [2]	GI50 [3] [µM]	TGI [3] [µM]	GI50 [4]	TGI [4]	GI50 [5] [µM]	TGI [5] [µM]	GI50 [6]	TGI [6]	GI50 [7] [µM]	TGI [7] [µM]	GI50 [8] [µM]	TGI [8] [µM]	GI50 [9] [µM]	TGI [9]	TGI [10] [µM]	GI50 [10]
COc1c(N2CCN(CN3C(=O)C(=O)c4ccccc43)C(C)C2)c(F)cc2c(=O)c(C(=O)O)cn(C3CC3)c12 (centres undefined)	46	> 100	47.3 µM	> 100 µM	> 100	> 100	36.8 µM	> 100 µM	> 100	> 100	> 100 µM	> 100 µM	6.85	68.7	> 100	> 100	33.6	> 100 µM		
CN=C(N)NC		> 100		> 100 µM		> 100		> 100 µM		> 100		> 100 µM		> 100				> 100 µM	> 100	
[N-]=[N+]=NC1C2CC3CC(C2)CC1C3 (centres undefined)				> 100 µM		> 100		> 100 µM		> 100		> 100 µM		> 100		> 100		> 100 µM	> 100	
COc1cc2ccc3c4cc(OC)c(OC(C)C)cc4c[n+](C)c3c2cc1OC		> 100		> 100 µM		> 100		> 100 µM		> 100		55.6 µM		> 100		> 100			> 100	
C#CCN(Cc1nc2cc(C(F)(F)F)ccc2nc1-c1ccccc1)c1ccc(F)cc1	37.9	> 100	30.8 µM	96 µM	23.1	66.2	36.5 µM	> 100 µM	42.4	> 100			19.2	59	62.2	92.2	38	92.8 µM		
C[C@H](C(O)CC(=O)C(C)(C)O)[C@H]1CC[C@@]2(C)[C@@H]3CC[C@H]4C(C)(C)[C@@H](OC5OC(COC6OC(CO)C(O)C(O)C6O)C(O)C(O)C5O)CC[C@]4(C)C3=CC[C@]12C (some centres undefined)		> 100		> 100 µM		> 100				> 100		> 100 µM		> 100		> 100		> 100 µM	> 100	
O=C(Nc1ccc(N2CCNCC2)cn1)c1[nH]ncc1Nc1ncnc2sccc12			4.27 µM	18.8 µM	2.91	13.5	1.99 µM	7.64 µM	2.62	9.05	7.72 µM	25.9 µM	3.62	14.8	3.89	> 100	13.4	31.5 µM	32.1	12.7 µM
C[C@@]1(O)CCC[C@H]1n1c(=O)c(C(F)F)cc2cnc(NC3CCN(S(C)(=O)=O)CC3)nc21	2.07	7.34	2.66 µM	> 100 µM	1.75	5.92					2.28 µM	6.34 µM	1.21	> 100	3.45	> 100			> 100	0.539 µM
COC(=O)c1ccc(/C=C/S(=O)(=O)c2ccccc2)cc1		> 100		> 100 µM		> 100		> 100 µM		> 100		> 100 µM		> 100		> 100		> 100 µM		
CN(C)C1C(=O)C(C(N)=O)=C(O)C2(O)C(=O)C3=C(O)c4c(O)cccc4C(C)(O)C3CC12 (centres undefined)			18.4 µM and > 100 µM	32.5 µM and > 100 µM		> 100	23.5 µM and > 100 µM	46.5 µM and > 100 µM		> 100	73 µM and 28 µM	> 100 µM and 91.8 µM		> 100		> 100		95.5 µM and > 100 µM	> 100	> 100 µM and 42.7 µM
Cc1nc2ccccc2c(/C=C/c2ccccc2)c1C(=O)/C=C/c1ccccc1	2.14	6.24	1.9 µM	4.07 µM	1.75	3.28			2.16	5.27	1.92 µM	4.08 µM	2.58	6.81			1.83	3.46 µM	3.53	1.86 µM
CCCCCCCCCCCCC(NC(C)=O)(C(=O)OCC)C(=O)OCC	13.4	28.5	10.2 µM	22 µM	6.99	26.1	18.2 µM	62.4 µM	12.5	27.2					10.6	27.4	13.5	26.6 µM	26.2	12.5 µM
CN1CCN(c2ccc(-c3cccc(CN4CCOCC4)c3)cc2NC(=O)c2c[nH]c(=O)cc2C(F)(F)F)CC1	62.5	> 100	> 100 µM	> 100 µM	69.7	> 100	19 µM	64 µM	> 100	> 100	27.3 µM	72 µM	68.7	> 100					> 100	> 100 µM
CCOc1ncnc2ccc(Cl)c(I)c12		> 100		> 100 µM		> 100						> 100 µM		> 100		> 100		> 100 µM	> 100	
CC(C)(C)C1CCC(=O)C(C(O)CC2CC(=O)N(c3ccccc3)C(=O)C2)C1 (centres undefined)		> 100		> 100 µM		> 100		> 100 µM		> 100				> 100		> 100		> 100 µM	> 100	
CCN(CC)CCOc1ccc(Cc2ccccc2)cc1	35.3	> 100	48.8 µM	> 100 µM	26.4	> 100			69.7	> 100	13.9 µM	50.5 µM	23.3	92.9	29.5	> 100	19.3	87 µM	> 100	38.7 µM
COC(=O)C1=C(O)c2cc3c(cc2[C@H](c2cc(OC)c(OC)c(OC)c2)C1)OCO3		> 100		> 100 µM				89.6 µM		> 100				> 100		> 100		61.7 µM		
